According to US20100120084A1, “REACTION MEDIUM FOR IDENTIFYING/DETECTING MICROORGANISMS” (Biomerieux, priority 2007, published 2010):
Where two headings read alike, the source gives them in different places.

Assays:
β-lactamase = β-lactamase resistance to heat degradation (residual amoxicillin by HPLC); details: for [Amoxicillin] (arbitrary units): amoxicillin 500 mg·L^−1, 5 min at 25° C.
Protocol: β-Lactamase (Genzyme Biochemicals Ref. BELA-70-1431) in an amount equivalent to 0.375 U·mL^−1 was mixed with the cyclodextrin BCD A56 of the Protéosol® range (1 or 10 mM), at ambient temperature and in the dark, for 30 min. The mixture was then heated at 70° C. for 45 min. […] After incubation for 5 min at 25° C., the residual amoxicillin was analyzed by HPLC.
On the basis of the above profiles, it was possible to quantify the concentration of amoxicillin and to link this value to the β-lactamase activity.

[1] = format: physicochemical; details: for native molecule (cloxacillin) found after heating: 31 h at 75° C.
Protocol: Cloxacillin (molecular mass 475.88) is an antibiotic of β-lactam type, used to inhibit the growth of certain bacterial species such as Enterobacter aerogenes or Escherichia coli. The cyclodextrins of the BioCydex library were incubated with cloxacillin in a 1:1 molar ratio (concentration=210.12 mM), at 20° C. for 72 h (shaking in the dark). The amount of residual cloxacillin was then analyzed by HPLC.
The following tests were carried out in an aqueous medium and at high temperature (75° C.) in order to accelerate the rate of degradation.
The complexes were prepared at ambient temperature with cloxacillin:cyclodextrin molar ratios of 1:16 and of 1:79. The solutions containing 0.63 mM, i.e. 300 mg·L^−1, of cloxacillin were incubated at 75° C. for 31 h. The analysis of the samples and the quantification thereof so as to evaluate the stability of the antibiotic were carried out on a Thermo Finnigan SpectraSYSTEM HPLC system equipped with a P1000XR pump, an AS3000 automatic injector, a UV1000 UV/visible detector, and a Merck Chromolith® Performance RP-18 endcapped column (100-4.6 mm) preceded by a Merck Chromolith® RP-18e guard column (5-4.6 mm).
(§1) The mobile phases were prepared using HPLC-grade acetonitrile and water acidified with trifluoroacetic acid (100 μL/L). A methanol/water gradient of 0/100 to 100/0 was applied in 12 min. After stabilization for 2 min, the column is reequilibrated under the initial conditions. The elution speed is 1 mL/min, the temperature is 22° C. and the detection is carried out at 220 nm. The sample injection volume is 20 μL. The chromatographic data were processed using the Atlas software, version 2003.1 (Thermo Electron Corporation, UK).

[2] = Stability of cefoxitin in the presence of cyclodextrins at 65° C. (HPLC); format: physicochemical
Protocol: 0.444 mM of cefoxitin (Sigma, Ref. C4786-5G) and 8.88 mM of cyclodextrin (ACD N0 or GCD NO or BCD R59 or BCD C15), i.e. in a molar ratio of 1:20, were dissolved with stirring for one hour at ambient temperature. The mixture was then brought to 65° C. for 90 min. The integrity of the cefoxitin was then analyzed by HPLC. The analysis of the samples and the quantification thereof were carried out on a Thermo Finnigan SpectraSYSTEM HPLC system equipped with a P1000XR pump, an AS3000 automatic injector, a UV1000 UV/visible detector, and a Merck Chromolith® Performance RP-18 endcapped column (100-4.6 mm) preceded by a Merck Chromolith® RP-18e guard column (5-4.6 mm).
as §1, with “254” for “220”
The optimization of protection was sought by varying the cefoxitin:cyclodextrin (BCD R59 and BCD C15) molar ratio from 1:1 to 1:216, the other conditions remaining unchanged. […] The improvement in stability was calculated relative to the control without cyclodextrin.

[3] = cloxacillin complexed with cyclodextrin

With “6^I-(3-aminopropylamino)-6^I-deoxycyclomaltoheptaose [BCD A56]” the “protection of the β-lactamase against heat” value (β-lactamase; BCD A56 at 10 mM, reference: absence of cyclodextrin) was “excellent protection”, the “interaction with the active site of the enzyme” value (β-lactamase; β-lactamase + BCD A56) was “did not interact” and the “[Amoxicillin] (arbitrary units)” value (β-lactamase; β-lactamase heated 70° C. 45 min + BCD A56 at 1 mM) was 4.3 arbitrary units. The “[Amoxicillin] (arbitrary units)” value (β-lactamase; β-lactamase heated 70° C. 45 min + BCD A56 at 10 mM) was 0.8 arbitrary units.

For “randomly 2-O-methyl-cyclomaltoheptaose [BCD C15]”, the “protection of cloxacillin against heat degradation, comparison of cyclodextrins” value [1] was “best protection”, the “native molecule (cloxacillin) found after heating” value (“native molecule” below) [1, 3] was 40% and the “complexed antibiotic (cefoxitin) less degraded than the molecule alone” value [2] was “approximately 10%”. For the same compound, the “protection of cefoxitin, comparison of BCD R59 and BCD C15” value ([2]; molar ratios between 1:6 and 1:30, FIG. 2) was “most effective”.

With `Cc1onc(-c2ccccc2Cl)c1C(=O)N[C@@H]1C(=O)N2[C@@H]1SC(C)(C)[C@@H]2C(=O)O` [cloxacillin, reference compound] the “Cloxacillin stability (%)” value ([1]; 31 h, 0.63 mM) was 0.6% and the “native molecule” value ([1]; cloxacillin not associated with cyclodextrin) was 0%.

With “randomly 2,3,6-O-(2-hydroxypropyl)cyclomaltoheptaose [BCD R59]” the “native molecule” value [1, 3] was 40%.

For `CO[C@@]1(NC(=O)Cc2cccs2)C(=O)N2C(C(=O)O)=C(COC(N)=O)CS[C@@H]21` [cefoxitin, reference compound], the stability of cefoxitin ([2]; cefoxitin:cyclodextrin molar ratio 1:50, 90 min at 65° C.) was 47.5% and the Cefoxitin stability/% ([2]; no cyclodextrin, 0.444 mM cefoxitin, 65° C. for 90 min) was 38.5%.
